Drawing on US9440981B2, “Pyrrolo[2, 1-F] [1,2,4]triazine derivative and use thereof for treating tumors” (PHARMABLOCK (NANJING) R&D CO. LTD., priority 2012, dated 2016), this text covers IC50 for twelve molecules.

Structures are written as SMILES.

Common to all, as to format: cell-based
The subject of experiment [1] is human liver cancer cell line SMMC-7721. In words: MTT assay, growth inhibition of SMMC-7721 cells. Particulars: 96-hr culture, read-out: IC50 ± SD, SMMC-7721. As to the method: (§1) The inhibition of the compounds of the present invention on growth of a variety of human tumor cell lines is evaluated by MTT assay.
(§2) Method: cells in exponential phase (human gastric cancer cell line SGC-7901, human non-small cell lung cancer cell line A549, human breast cancer cell line BT-549, human prostatic cancer cell line PC-3, human colon cancer cell line HT-29, and human liver cancer cell line SMMC-7721) are seeded at a density of 1.5×10^4 in a 96-well plate. After 24-hr culture, the cells are grown to confluent and the previous culture medium is aspirated. The test includes a control group, and a treatment group. In the control group, a 1640 medium containing 10% fetal bovine serum is replenished; and in the treatment group, a medium containing 100 μM, 50 μM, 10 μM, 1 μM, 0.1 μM, 0.01 μM, 0.001 μM, 0.0001 μM, and 0.00001 μM test compound is replenished. After 96-hr culture, 5 mg/mL MTT is added, and cultured in a CO2 incubator for another 4 hrs. Then, 100 μL of the supernatant is aspirated from the upper portion of the culture medium, and placed in the dark for 10 min after 100 μL DMSO is added. The absorbance (at 570 nm) is measured on a microplate reader (available from Sunrise Co., Ltd.), and the cell viability is calculated from the absorbance. 6 replicate wells are set for each treatment. Cell viability (%)=ΔODtreatment/ΔODcontrol×100.
(§3) The ID50 values of six compounds for inhibiting the growth of numerous human tumor cell lines are calculated by Sigmaplot 10.0 software and are shown in Table 1.

Experiment [2] concerns human gastric cancer cell line SGC-7901. The experiment is described as follows: MTT assay, growth inhibition of SGC-7901 cells. Particulars: 96-hr culture, read-out: IC50 ± SD, SGC-7901. As to the method: as §1, §2, §3
In experiment [3] the test system is human colon cancer cell line HT-29. The experiment is described as follows: MTT assay, growth inhibition of HT-29 cells. Particulars: 96-hr culture, read-out: IC50 ± SD, HT-29. The procedure:
as §1, §2, §3

Experiment [4] concerns human non-small cell lung cancer cell line A549. The experiment is described as follows: MTT assay, growth inhibition of A549 cells. The following applies: 96-hr culture, read-out: IC50 ± SD, A549. The procedure:
as §1, §2, §3

Experiment [5] deals with human prostatic cancer cell line PC-3. The experiment is described as follows: MTT assay, growth inhibition of PC-3 cells. The following applies: 96-hr culture, read-out: IC50 ± SD, PC-3. The procedure: as §1, §2, §3
Experiment [6] has as its system human breast cancer cell line BT-549. The experiment is described as follows: MTT assay, growth inhibition of BT-549 cells. Particulars: 96-hr culture, read-out: IC50 ± SD, BT-549. The procedure:
as §1, §2, §3

For `C[C@H](O)C(=O)N1CCN(Cc2cc3c(N4CCOCC4)nc(-c4cnc(N)nc4)nn3c2)CC1` [Compound I-10], the IC50 in experiment [1] is 1050 ± 240 nM; in experiment [2], 1290 ± 140 nM; in experiment [3], 310 ± 80 nM; in experiment [4], 1480 ± 190 nM; in experiment [5], 200 ± 110 nM; in experiment [6], 130 ± 30 nM.
As to `CC(C)(O)c1cc2c(N3CCOCC3)nc(-c3cccc4[nH]ncc34)nn2c1` [Compound I-6], the IC50 in experiment [1] worked out at 1840 ± 320 nM; in experiment [2], 1010 ± 20 nM; in experiment [3] it was 2150 ± 190 nM; in experiment [4], 1350 ± 280 nM; in experiment [5], 1050 ± 640 nM; in experiment [6] it was 2600 ± 670 nM.
In the case of `CS(=O)(=O)N1CCN(Cc2cc3c(N4CCOCC4)nc(-c4cccc5[nH]ccc45)nn3c2)CC1` [Compound I-1], the IC50 in experiment [1] amounted to 1690 ± 180 nM; in experiment [2], 2150 ± 140 nM; in experiment [3], 990 ± 40 nM; in experiment [4] it was 2610 ± 340 nM; in experiment [5], 510 ± 60 nM; in experiment [6] it was 1270 ± 80 nM.
Consider `CS(=O)(=O)N1CCN(C(=O)c2cc3c(N4CCOCC4)nc(-c4cccc5[nH]ncc45)nn3c2)CC1` [Compound I-5], for which the IC50 in experiment [1] worked out at 2150 ± 190 nM; in experiment [2] it was 3350 ± 460 nM; in experiment [3] it was 730 ± 20 nM; in experiment [4], 1960 ± 330 nM; in experiment [5], 220 ± 10 nM; in experiment [6], 590 ± 220 nM.
For the molecule `CC(=O)N1CCN(Cc2cc3c(N4CCOCC4)nc(-c4cnc(N)nc4)nn3c2)CC1` [Compound I-8], the IC50 was found to be 1280 ± 230 nM in experiment [1]; 1420 ± 230 nM in experiment [2]; 290 ± 50 nM in experiment [3]; 1030 ± 140 nM in experiment [4]; 140 ± 90 nM in experiment [5]; 110 ± 20 nM in experiment [6].
For `CCS(=O)(=O)N1CCN(Cc2cc3c(N4CCOCC4)nc(-c4cnc(N)nc4)nn3c2)CC1` [Compound I-7], the IC50 was found to be 1630 ± 390 nM in experiment [1]; 2390 ± 480 nM in experiment [2]; 470 ± 90 nM in experiment [3]; 1930 ± 230 nM in experiment [4]; 290 ± 130 nM in experiment [5]; 340 ± 40 nM in experiment [6].
With `CS(=O)(=O)N1CCN(Cc2cc3nc(-c4cccc5[nH]ncc45)nc(N4CCOCC4)c3s2)CC1` [GDC-0941, reference compound], the IC50 in experiment [1] was determined as 2450 ± 190 nM; in experiment [2] it was 9370 ± 1430 nM; in experiment [3], 780 ± 20 nM; in experiment [4], 1980 ± 340 nM; in experiment [5], 220 ± 20 nM; in experiment [6] it was 590 ± 220 nM.
Regarding `CS(=O)(=O)N1CCN(Cc2cc3c(N4CCOCC4)nc(-c4ccnc5[nH]ccc45)nn3c2)CC1` [Compound I-3], the IC50 came out at 1720 ± 70 nM in experiment [1]; 2520 ± 60 nM in experiment [2]; 960 ± 310 nM in experiment [3]; 2730 ± 520 nM in experiment [4]; 780 ± 360 nM in experiment [5]; 1990 ± 70 nM in experiment [6].
In the case of `CS(=O)(=O)N1CCN(Cc2cc3c(N4CCOCC4)nc(-c4cccc5[nH]ncc45)nn3c2)CC1` [Compound I-2], the IC50 was 2530 ± 1490 nM in experiment [1]; 1350 ± 280 nM in experiment [2]; 160 ± 30 nM in experiment [3]; 2950 ± 450 nM in experiment [4]; 440 ± 80 nM in experiment [5]; 350 ± 150 nM in experiment [6].
For the molecule `C[C@@H](O)C(=O)N1CCN(Cc2cc3c(N4CCOCC4)nc(-c4cnc(N)nc4)nn3c2)CC1` [Compound I-11], the IC50 came out at 2050 ± 280 nM in experiment [1]; 1490 ± 150 nM in experiment [2]; 850 ± 180 nM in experiment [3]; 1500 ± 200 nM in experiment [4]; 250 ± 120 nM in experiment [5]; 290 ± 130 nM in experiment [6].
In the case of `Nc1ncc(-c2nc(N3CCOCC3)c3cc(CN4CCN(C(=O)C5CC5)CC4)cn3n2)cn1` [Compound I-9], the IC50 in experiment [1] was determined as 3140 ± 380 nM; in experiment [2], 2510 ± 350 nM; in experiment [3], 870 ± 160 nM; in experiment [4], 3210 ± 380 nM; in experiment [5], 930 ± 180 nM; in experiment [6], 410 ± 110 nM.
With `CS(=O)(=O)N1CCN(Cc2cc3c(N4CCOCC4)nc(-c4cnc(N)nc4)nn3c2)CC1` [Compound I-4], the IC50 is 630 ± 110 nM in experiment [1]; 830 ± 30 nM in experiment [2]; 1210 ± 40 nM in experiment [3]; 620 ± 60 nM in experiment [4]; 1170 ± 140 nM in experiment [5]; 610 ± 70 nM in experiment [6].
